Experimental data taken from ChEMBL document CHEMBL3885881, “DrugMatrix”.

Species: Rattus norvegicus
Experiment: DrugMatrix - Regimen: Daily Repeat
Assay type: toxicity, organism-based, Sprague-Dawley
Design: regimen Daily Repeat, gender Male, age 6-8 weeks
Conditions: in vivo, po, route oral GAVAGE; for ALANINE AMINOTRANSFERASE / ALBUMIN / ALKALINE PHOSPHATASE / ASPARTATE AMINOTRANSFERASE / BLOOD UREA NITROGEN / CARBON DIOXIDE / CHLORIDE / CHOLESTEROL / CREATININE / GLUCOSE / LIPASE / PHOSPHORUS / POTASSIUM / SODIUM / TOTAL BILIRUBIN / CREATINE PHOSPHOKINASE / LACTATE DEHYDROGENASE / TOTAL PROTEIN / URIC ACID: tissue Plasma; for ABSOLUTE BASOPHIL / ABSOLUTE EOSINOPHIL / ABSOLUTE LYMPHOCYTE / ABSOLUTE MONOCYTE / ABSOLUTE SEGMENTED NEUTROPHIL / BASOPHIL / EOSINOPHIL / ERYTHROCYTE COUNT / HEMATOCRIT / HEMOGLOBIN / LEUKOCYTE COUNT / LYMPHOCYTE / MEAN CORPUSCULAR HEMOGLOBIN / MEAN CORPUSCULAR HEMOGLOBIN CONCENTRATION / MEAN CORPUSCULAR VOLUME / MONOCYTE / NEUTROPHIL / NUCLEATED RED BLOOD CELLS / PLATELET COUNT: tissue Blood
[1] = 7 mg/kg, 96 h, dose level M1, time 4 day, […]
[2] = 12 mg/kg, 72 h, dose level High, time 3 day, vehicle 100 % WATER
[3] = 12 mg/kg, 120 h, dose level High, time 5 day, vehicle 100 % WATER
[4] = […], 72 h, dose 9.6 mg/Kg, dose level M1, time 3 day, vehicle 100 % WATER
[5] = […], 120 h, dose 9.6 mg/Kg, dose level M1, time 5 day, vehicle 100 % WATER

## COc1ccc2c(c1)c(CC(=O)O)c(C)n2C(=O)c1ccc(Cl)cc1 [INDOMETHACIN]
[1]
  ALANINE AMINOTRANSFERASE: 65.33 u/L
  ALBUMIN: 2.67 G/DL
  ALKALINE PHOSPHATASE: 487 u/L
  ASPARTATE AMINOTRANSFERASE: 260 u/L
  BLOOD UREA NITROGEN: 49.33 mg/dL
  CARBON DIOXIDE: 24.3 mmol/L
  CHLORIDE: 100 MEQ/L
  CHOLESTEROL: 61.33 mg/dL
  CREATININE: 0.3 mg/dL
  GLUCOSE: 83 mg/dL
  LIPASE: 296.67 u/L
  PHOSPHORUS: 8.35 mg/dL
  POTASSIUM: 5.5 MEQ/L
  SODIUM: 138 MEQ/L
  TOTAL BILIRUBIN: 0.09 mg/dL
[2]
  ABSOLUTE BASOPHIL: 0 CELLS/uL
  ABSOLUTE EOSINOPHIL: 64 CELLS/uL
  ABSOLUTE LYMPHOCYTE: 7403 CELLS/uL
  ABSOLUTE MONOCYTE: 98 CELLS/uL
  ABSOLUTE SEGMENTED NEUTROPHIL: 468.33 CELLS/uL
  BASOPHIL: 0%
  EOSINOPHIL: 0.67%
  ERYTHROCYTE COUNT: 2.59 x10E6/uL
  HEMATOCRIT: 16.8%
  HEMOGLOBIN: 6.83 G/DL
  LEUKOCYTE COUNT: 8.03 x10E3/uL
  LYMPHOCYTE: 93.33%
  MEAN CORPUSCULAR HEMOGLOBIN: 26.43 pg
  MEAN CORPUSCULAR HEMOGLOBIN CONCENTRATION: 40.53 G/DL
  MEAN CORPUSCULAR VOLUME: 65.07 fL
  MONOCYTE: 1%
  NEUTROPHIL: 5%
  NUCLEATED RED BLOOD CELLS: 2.67 /100WBC
  PLATELET COUNT: 714.67 x10E3/uL
  ALANINE AMINOTRANSFERASE: 21 u/L
  ALBUMIN: 1.93 G/DL
  ALKALINE PHOSPHATASE: 177.67 u/L
  ASPARTATE AMINOTRANSFERASE: 46.33 u/L
  BLOOD UREA NITROGEN: 15.33 mg/dL
  CARBON DIOXIDE: 27 mmol/L
  CHLORIDE: 104.33 MEQ/L
  CHOLESTEROL: 69.67 mg/dL
  CREATINE PHOSPHOKINASE: 148.33 u/L
  CREATININE: 0.1 mg/dL
  GLUCOSE: 146.67 mg/dL
  LACTATE DEHYDROGENASE: 36 u/L
  LIPASE: 8.33 u/L
  PHOSPHORUS: 11 mg/dL
  POTASSIUM: 4.8 MEQ/L
  SODIUM: 143.4 MEQ/L
  TOTAL BILIRUBIN: 0.1 mg/dL
  TOTAL PROTEIN: 4.5 G/DL
  URIC ACID: 0.53 mg/dL
[3]
  ABSOLUTE BASOPHIL: 0 CELLS/uL
  ABSOLUTE EOSINOPHIL: 18.5 CELLS/uL
  ABSOLUTE LYMPHOCYTE: 2977 CELLS/uL
  ABSOLUTE MONOCYTE: 109 CELLS/uL
  ABSOLUTE SEGMENTED NEUTROPHIL: 495.5 CELLS/uL
  BASOPHIL: 0%
  EOSINOPHIL: 0.5%
  ERYTHROCYTE COUNT: 3.63 x10E6/uL
  HEMATOCRIT: 21.7%
  HEMOGLOBIN: 9.1 G/DL
  LEUKOCYTE COUNT: 3.6 x10E3/uL
  LYMPHOCYTE: 83%
  MEAN CORPUSCULAR HEMOGLOBIN: 25 pg
  MEAN CORPUSCULAR HEMOGLOBIN CONCENTRATION: 41.8 G/DL
  MEAN CORPUSCULAR VOLUME: 59.9 fL
  MONOCYTE: 3%
  NEUTROPHIL: 13.5%
  NUCLEATED RED BLOOD CELLS: 1.5 /100WBC
  PLATELET COUNT: 1098.5 x10E3/uL
  ALANINE AMINOTRANSFERASE: 17 u/L
  ALBUMIN: 2.1 G/DL
  ALKALINE PHOSPHATASE: 366 u/L
  ASPARTATE AMINOTRANSFERASE: 84 u/L
  BLOOD UREA NITROGEN: 37 mg/dL
  CARBON DIOXIDE: 26 mmol/L
  CHLORIDE: 108 MEQ/L
  CHOLESTEROL: 66 mg/dL
  CREATINE PHOSPHOKINASE: 224 u/L
  CREATININE: 0.1 mg/dL
  GLUCOSE: 132.5 mg/dL
  LACTATE DEHYDROGENASE: 83.5 u/L
  LIPASE: 12.5 u/L
  PHOSPHORUS: 11.15 mg/dL
  POTASSIUM: 5.62 MEQ/L
  SODIUM: 146.9 MEQ/L
  TOTAL BILIRUBIN: 0.15 mg/dL
  TOTAL PROTEIN: 4.7 G/DL
  URIC ACID: 0.45 mg/dL
[4]
  ABSOLUTE BASOPHIL: 0 CELLS/uL
  ABSOLUTE EOSINOPHIL: 39.33 CELLS/uL
  ABSOLUTE LYMPHOCYTE: 13009.33 CELLS/uL
  ABSOLUTE MONOCYTE: 145.33 CELLS/uL
  ABSOLUTE SEGMENTED NEUTROPHIL: 3406 CELLS/uL
  BASOPHIL: 0%
  EOSINOPHIL: 0.33%
  ERYTHROCYTE COUNT: 4.19 x10E6/uL
  HEMATOCRIT: 26.67%
  HEMOGLOBIN: 10.63 G/DL
  LEUKOCYTE COUNT: 16.6 x10E3/uL
  LYMPHOCYTE: 78.33%
  MEAN CORPUSCULAR HEMOGLOBIN: 25.53 pg
  MEAN CORPUSCULAR HEMOGLOBIN CONCENTRATION: 40 G/DL
  MEAN CORPUSCULAR VOLUME: 63.8 fL
  MONOCYTE: 1%
  NEUTROPHIL: 20.33%
  NUCLEATED RED BLOOD CELLS: 0 /100WBC
  PLATELET COUNT: 984.67 x10E3/uL
  ALANINE AMINOTRANSFERASE: 50.33 u/L
  ALBUMIN: 3.17 G/DL
  ALKALINE PHOSPHATASE: 197.33 u/L
  ASPARTATE AMINOTRANSFERASE: 77.33 u/L
  BLOOD UREA NITROGEN: 13.33 mg/dL
  CARBON DIOXIDE: 26 mmol/L
  CHLORIDE: 102.67 MEQ/L
  CHOLESTEROL: 72.33 mg/dL
  CREATINE PHOSPHOKINASE: 564.67 u/L
  CREATININE: 0.3 mg/dL
  GLUCOSE: 162.33 mg/dL
  LACTATE DEHYDROGENASE: 111.33 u/L
  LIPASE: 11.67 u/L
  PHOSPHORUS: 10.83 mg/dL
  POTASSIUM: 5.33 MEQ/L
  SODIUM: 141.3 MEQ/L
  TOTAL BILIRUBIN: 0.1 mg/dL
  TOTAL PROTEIN: 5.07 G/DL
  URIC ACID: 1.23 mg/dL
[5]
  ABSOLUTE BASOPHIL: 0 CELLS/uL
  ABSOLUTE EOSINOPHIL: 0 CELLS/uL
  ABSOLUTE LYMPHOCYTE: 4773 CELLS/uL
  ABSOLUTE MONOCYTE: 34 CELLS/uL
  ABSOLUTE SEGMENTED NEUTROPHIL: 943 CELLS/uL
  BASOPHIL: 0%
  EOSINOPHIL: 0%
  ERYTHROCYTE COUNT: 4.33 x10E6/uL
  HEMATOCRIT: 26.75%
  HEMOGLOBIN: 10.7 G/DL
  LEUKOCYTE COUNT: 5.75 x10E3/uL
  LYMPHOCYTE: 81%
  MEAN CORPUSCULAR HEMOGLOBIN: 24.7 pg
  MEAN CORPUSCULAR HEMOGLOBIN CONCENTRATION: 40 G/DL
  MEAN CORPUSCULAR VOLUME: 61.75 fL
  MONOCYTE: 0.5%
  NEUTROPHIL: 18.5%
  NUCLEATED RED BLOOD CELLS: 1 /100WBC
  PLATELET COUNT: 1266.5 x10E3/uL
  ALANINE AMINOTRANSFERASE: 53.5 u/L
  ALBUMIN: 3 G/DL
  ALKALINE PHOSPHATASE: 320 u/L
  ASPARTATE AMINOTRANSFERASE: 129 u/L
  BLOOD UREA NITROGEN: 45 mg/dL
  CARBON DIOXIDE: 33 mmol/L
  CHLORIDE: 92.5 MEQ/L
  CHOLESTEROL: 60.5 mg/dL
  CREATINE PHOSPHOKINASE: 215 u/L
  CREATININE: 0.32 mg/dL
  GLUCOSE: 131 mg/dL
  LACTATE DEHYDROGENASE: 112.5 u/L
  LIPASE: 24.5 u/L
  PHOSPHORUS: 11.45 mg/dL
  POTASSIUM: 5.66 MEQ/L
  SODIUM: 139.9 MEQ/L
  TOTAL BILIRUBIN: 0.15 mg/dL
  TOTAL PROTEIN: 5.8 G/DL
  URIC ACID: 1.05 mg/dL
